Reference: US20090062273A1, “3-H-pyrazolopyridines and salts thereof, pharmaceutical compositions comprising same, methods of preparing same and uses of same” (priority 2006, published 2009)

How the values were obtained:
Tie2 = Tie2 (Homo sapiens, UniProt Q02763); assay: Tie-2-Kinase HTRF-Assay without kinase preactivation; type: biochemical; design: fusion protein of GST and the intracellular domains of Tie-2; GST; made in house; host or cells: insect cells (Hi-5); details: GST-Tie-2 intracellular domains, 10 μM ATP
In short: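 GST fusion of the Tie-2 intracellular domains from insect cells, not preactivated, run 60 min at 22 °C with 10 μM ATP and 1 μM biotinylated peptide, HEPES pH 7 with MgCl2/MnCl2, 1% DMSO; compounds 0.001-20 μM. EDTA stop, HTRF 665/620 nm ratio; IC50 by 4-parameter fit.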

[1] = molecular target: T1, human insuline receptor (Ins-R) (Homo sapiens, UniProt P06213); assay: InsR HTRF assay (selectivity vs. Tie2 assay 2); type: biochemical; details: IC50 assay 4/IC50 assay 2
T1 construct: GST-tagged recombinant kinase domain of the human insuline receptor; GST; purchased ProQinase, Freiburg, Germany; host or cells: SF-9 cells
Method: Inhibitory activity of compounds against the kinase activity of the insulin receptor was quantified employing the Ins-R HTRF assay as described in the following paragraphs.
GST-tagged recombinant kinase domain of the human insuline receptor (Ins-R, purchase from ProQinase, Freiburg, Germany) expressed in SF-9 cells was used as kinase. As substrate for the kinase reaction biotinylated poly-(Glu,Tyr) (Cis biointernational, France) was used.
Ins-R was incubated for 20 min at 22° C. in the presence of different concentrations of test compounds in 5 μl assay buffer [50 mM Hepes/NaOH pH 7, 15 mM MnCl2, 1 mM dithiothreitol, 0.1 μM sodium ortho-vanadate, 0.015% (v/v) PEG20000, 10 μM adenosine-tri-phosphate (ATP), 0.3 μg/ml substrate, 1% (v/v) dimethylsulfoxide]. The concentration of Ins-R was adjusted depending of the activity of the enzyme lot and was chosen appropriate to have the assay in the linear range, typical concentrations were in the range of 10 pg/μL. The reaction was stopped by the addition of 5 μl of a solution of HTRF detection reagents (0.1 μM streptavidine-XLent and 1 nM PT66-Eu-Chelate, an europium-chelate labelled anti-phospho-tyrosine antibody from Perkin Elmer) in an aqueous EDTA-solution (80 mM EDTA, 0.2% (w/v) bovine serum albumin in 50 mM HEPES/NaOH pH 7.0).
The resulting mixture was incubated 1 h at 22° C. to allow the binding of the biotinylated phosphorylated peptide to the streptavidine-XLent and the PT66-Eu-Chelate. Subsequently the amount of phosphorylated substrate was evaluated by measurement of the resonance energy transfer from the PT66-Eu-Chelate to the streptavidine-XLent. Therefore, the fluorescence emissions at 620 nm and 665 nm after excitation at 350 nm was measured in a HTRF reader, e.g. a Rubystar (BMG Labtechnologies, Offenburg, Germany) or a ViewLux (Perkin-Elmer). The ratio of the emissions at 665 nm and at […] was taken as the measure for the amount of phosphorylated substrate. The data were normalised (enzyme reaction without inhibitor=0% inhibition, all other assay components but no enzyme=100% inhibition) and IC50 values were calculated by a 4 parameter fit using an inhouse software.

T1 sequence (P06213 1023-1298 limits assumed): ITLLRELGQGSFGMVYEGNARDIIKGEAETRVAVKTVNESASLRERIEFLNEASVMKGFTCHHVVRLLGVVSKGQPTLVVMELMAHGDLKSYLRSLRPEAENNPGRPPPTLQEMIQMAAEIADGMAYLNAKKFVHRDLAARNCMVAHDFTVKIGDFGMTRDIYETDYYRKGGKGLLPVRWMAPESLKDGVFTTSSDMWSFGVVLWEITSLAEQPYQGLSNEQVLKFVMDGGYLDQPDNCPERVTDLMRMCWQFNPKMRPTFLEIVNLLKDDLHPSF
Chain of Tie2 (Q02763 770-1124 limits assumed, species assumed): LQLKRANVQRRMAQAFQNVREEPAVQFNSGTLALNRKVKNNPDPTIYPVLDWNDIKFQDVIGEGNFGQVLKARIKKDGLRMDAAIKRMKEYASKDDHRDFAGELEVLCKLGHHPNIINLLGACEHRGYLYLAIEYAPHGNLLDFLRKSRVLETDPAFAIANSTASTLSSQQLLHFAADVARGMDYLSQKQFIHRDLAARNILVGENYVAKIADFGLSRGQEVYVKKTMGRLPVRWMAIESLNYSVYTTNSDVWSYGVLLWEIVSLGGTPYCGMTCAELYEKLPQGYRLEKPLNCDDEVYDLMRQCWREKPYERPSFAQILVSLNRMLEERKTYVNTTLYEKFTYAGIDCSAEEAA

IC50 (Tie2) [nM]	Selectivity vs. InsR [1] [fold]	Compound
< 501	>50	CN1CCN(Cc2ccc(NC(=O)Nc3ccc(-c4cncc5c4cnn5C)cc3F)cc2C(F)(F)F)CC1 [Example 13.6, 1-[2-Fluoro-4-(1-methyl-1H-pyrazolo[3,4-c]pyridin-4-yl)-phenyl]-3-[4-(4-methyl-piperazin-1-ylmethyl)-3-trifluoromethyl-phenyl]-urea]
< 501	>50	CC(C)c1cc(NC(=O)Nc2ccc(-c3cncc4c3cnn4C)cc2F)n(-c2cccc(F)c2)n1 [Example 15.2, 1-[2-Fluoro-4-(1-methyl-1H-pyrazolo[3,4-c]pyridin-4-yl)-phenyl]-3-[2-(3-fluoro-phenyl)-5-isopropyl-2H-pyrazol-3-yl]-urea]
< 501	>50	COCCn1ncc2c(-c3ccc(NC(=O)Nc4cc(C(F)(F)F)ccc4F)c(F)c3)cncc21 [Example 12.5, 1-{2-Fluoro-4-[1-(2-methoxy-ethyl)-1H-pyrazolo[3,4-c]pyridin-4-yl]-phenyl}-3-(2-fluoro-5-trifluoromethyl-phenyl)-urea]
< 501	>50	CN1CCN(Cc2ccc(NC(=O)Nc3ccc(-c4cncc5c4cnn5CCO)cc3)cc2C(F)(F)F)CC1 [Example 8.6, 1-{4-[1-(2-Hydroxy-ethyl)-1H-pyrazolo[3,4-c]pyridin-4-yl]-phenyl}-3-[4-(4-methyl-piperazin-1-ylmethyl)-3-trifluoromethyl-phenyl]-urea]
< 501	>50	Cn1ncc2c(-c3ccc(NC(=O)Nc4cc(C(F)(F)F)ccn4)c(F)c3)cncc21 [Example 14.5, 1-[2-Fluoro-4-(1-methyl-1H-pyrazolo[3,4-c]pyridin-4-yl)-phenyl]-3-(4-trifluoromethyl-pyridin-2-yl)-urea]
< 501	>50	Cc1cc(-c2cncc3c2cnn3C)ccc1NC(=O)Nc1cccc(C(F)(F)F)c1 [Example 4.1, 1-[2-Methyl-4-(1-methyl-1H-pyrazolo[3,4-c]pyridin-4-yl)-phenyl]-3-(3-trifluoromethyl-phenyl)-urea]
< 501	>50	Cn1ncc2c(-c3ccc(NC(=O)Nc4cc(C(F)(F)F)ccc4Cl)cc3)cncc21 [Example 1.13, 1-(2-Chloro-5-trifluoromethyl-phenyl)-3-[4-(1-methyl-1H-pyrazolo[3,4-c]pyridin-4-yl)-phenyl]-urea]
